“Also recorded” adds a separate entry of the source.
Key:
[1] = Excited state lifetime and FCS study under single molecule conditions; assay type: physicochemical
[2] = Fluorescence quantum yield, Atto 633 as reference; assay type: physicochemical; settings: Atto 633 as reference (Φfl = 64% in aqueous buffer)
Source text: Moreover, intersystem crossing rates (kISC) and rates of the T1→S0 transitions were also found to be the same for both deuterated and undeuterated substances (see ref. to Table 2).

physchem = settings: water
[3] = UV-visible absorption and fluorescence spectra of the dyes of the invention; assay type: physicochemical
Description: UV-visible absorption spectra were recorded on a Varian Cary 4000 UV-Vis spectrophotometer, and fluorescence spectra on a Varian Cary Eclipse fluorescence spectrophotometer. Reactions were carried out upon magnetic stirring in Schlenk flasks equipped with septa or reflux condensers with bubble-counters under argon using a standard manifold with vacuum and argon lines. All NMR spectra are referenced to tetramethylsilane as an internal standard (δ=0 ppm) using the signals of the residual protons of CHCl3 (7.26 ppm) in CDCl3, CHD2OD (3.31 ppm) in CD3OD, HOD (4.75 ppm) in D2O, [D5]acetone (2.04 ppm) in [D6]acetone or [D5]DMSO (2.50 ppm) in [D6]DMSO. Multiplicities of signals are described as follows: s=singlet, br. s=broad singlet, d=doublet, t=triplet, q=quartet, quint=quintet, m=multiplet, mc=centrosymmetrical multiplet. Coupling constants (J) are given in Hz. Multiplicities in the ^13C NMR spectra were determined by APT (Attached Proton Test) measurements. Low resolution mass spectra (electro spray ionization, ESI) were obtained with LCQ and ESI-TOF mass-spectrometers (MICROTOF (focus), Fa. Bruker). The MICROTOF spectrometer equipped with ESI ion source Apollo and direct injector with LC autosampler Agilent RR 1200 was used for obtaining high resolution mass spectra (ESI-HRMS). ESI-HRMS were obtained also on APEX IV spectrometer (Bruker). HPLC system (Knauer): Smartline pump 1000 (2×), UV detector 2500, column thermostat 4000 (25° C.), mixing chamber, injection valve with 20 and 100 μL loop for the analytical and preparative columns, respectively; 6-port-3-channel switching valve; analytical column: Eurospher-100 C18, 5 μm, 250×4 mm, 1.1 mL/min; preparative column: Eurospher-100-5 C18, 5 μm, 250×8 mm, 3.7 mL/min; solvent A: water+0.1% v/v trifluoroacetic acid (TFA); solvent B: MeCN+0.1% v/v TFA; detection at 636 nm (if not stated otherwise). Normal phase analytical TLC was performed on MERCK ready-to-use plates with silica gel 60 (F254) and reversed phase TLC—on RP-18W/UV254 precoated TLC plates (Macherey-Nagel). Preparative TLC was performed on MERCK HPTLC silica gel 60 plates (10×10 cm, layer thickness 0.2 mm). Column chromatography: MERCK silica gel, grade 60, 0.04-0.063 mm or Polygoprep 60-50 C18 (Macherey-Nagel).

[4] = Chemical and storage stability of dyes and reactive derivatives; assay type: physicochemical
[5] = Bleaching measurements by pump-probe cycles; assay type: physicochemical; settings: 50 pump-probe cycles, pump intensity 18 kW/cm^2, 633 nm CW, 10 ms pulses, air-oxygen
Description: The degree of photodecomposition was evaluated by measuring the decrease in the fluorescence intensity of compound 6 (FIG. 5). […] The pulse duration was 10 ms, and the pulse power 18.3 kW/cm^2 (633 nm CW laser light). Photostability of compound 6 is strong: 50 pump-probe cycles with a pump intensity of 18 kW/cm^2 only bleach 25% of the ensemble allowing for a high number of single-molecule returns, i.e. a high number of single-molecule localizations and thus a final image with high contrast.

[6] = Solubility and polarity of the dyes
[7] = Ground state depletion studies (pump-probe mode); assay type: physicochemical
Source text: The compound 6 is excellent for super-resolution far-field microscopy based on ground-state depletion, such as GSDIM (ground-state depletion followed by individual molecule return; J. Fölling et. al, Nature Meth. 2008, 5, 943-945). Here, “off” and “on” switching of the fluorescence is achieved by transiently shelving the fluorophore into a metastable dark state. Upon the return of only a few isolated single molecules to the fluorescent singlet state, positions of these single light emitting spots can be imaged on a camera and localized with high precision. Upon repeating this procedure and acquiring many pictures, a super-resolution image can be reconstructed from the localized positions. A prerequisite of this method is that >90% of the ensemble of the applied fluorescent dye can be shelved into a dark state at a time (to ensure the detection of isolated fluorescent spots at a time in a densely labeled sample) and that the fluorophore is bright enough, i.e., that it emits enough photons while being in the singlet on-state (to ensure high precision of localization). […] Switching off of the laser leads to a recovery of the fluorescence ensemble within a characteristic recovery time of 50 ms (FIG. 7), indicating the shelving into a metastable dark state. The measurements of FIGS. 6 and 7 were performed in a pump-probe mode, i.e., the residual level of fluorescence was probed with I=100 W/cm^2 for 0.5 ms after strong irradiation for 10 ms with the given laser intensity. Further on, recovery of the fluorescence can be accelerated by addition of UV light, which leads to an optically-induced de-population of the dark states. Already 2 kW/cm^2 of 375 nm light recovers 60% of the fluorescence within an irradiation period of 1 ms (FIG. 8). This is important in cases of samples of low label density where the addition of UV light and thus acceleration of dark state return helps to accelerate image acquisition.

[8] = Conjugation with antibodies: labelling degree and quantum yield of conjugates; assay type: physicochemical
Source text: The degree of labelling achieved with antibodies may strongly vary; typically, compounds 6/6D (taken as their NHS esters 9/9D) attached to the anti-rabbit and anti-mouse antibodies produced a labelling degree from 2.5 up to 6. […] Decrease in fluorescence quantum yields after conjugation with antibodies is normal and well documented [cf.: V. P. Boyarskiy, V. N. Below, R. Medda, B. Hein, M. Bossi, S. W. Hell, Chem. Eur. J. 2008, 14, 1784-1792].

SMILES: CN(CCC(=O)O)C(=O)c1c(F)c(F)c(F)c(F)c1C1=c2cc3c4c(c2Oc2c1cc1c5c2CCCN5C(C)(C)C=C1CS(=O)(=O)O)CCC[N+]=4C(C)(C)C=C3CS(=O)(=O)[O-] [Compound 6]
- τfl (excited state lifetime) [1]: 3.57^20 ns
- Φfl in water [2]: 80%
- solubility (physchem): > 100 mM
- Stokes shift ([3]; dyes of the invention): 23 nm
- ε · 10^−5 ([3]; solvent H2O): 0.94 M^−1 cm^−1
- λmax (abs.) ([3]; solvent H2O): 637 nm
- λmax (fl.) ([3]; solvent H2O): 660 nm
- stability in methanol or methanol-containing solutions [4]: formed the corresponding methyl ester; also recorded: rapid esterification of the β-alanine fragment with methanol
- fraction of the ensemble bleached [5]: 25%
- polarity [6]: polar; also recorded: hydrophilic
- solubility in organic solvents [6]: insoluble in diethyl ether, aliphatic, chlorinated, and aromatic hydrocarbons
- solubility in water or aqueous buffers [6]: soluble in water; also recorded: soluble in water or aqueous buffers
- solubility in water ([6]; room temperature): 40-45 mg in 1 mL
- fluorescence recovered by UV light ([7]; 2 kW/cm^2 of 375 nm light, irradiation period 1 ms): 60%
- extent of ground state depletion ([7]; 633 nm laser pulses, ca. 12 kW/cm^2): 97±3%
- fluorophores switched off at a time ([7]; I>10 kW/cm^2 CW 633 nm, poly(vinyl alcohol) matrix): 97%
- fluorescence quantum yield of the conjugate ([8]; conjugate with goat anti-rabbit antibodies): 40%
- fluorescence quantum yield of the conjugate ([8]; conjugate with sheep anti-mouse antibodies): 48%

Source: US8580579B2, “Hydrophilic and lipophilic rhodamines for labelling and imaging” (Max-Planck-Gesellschaft zur Foerderung der Wissenschaften …, priority 2009, dated 2013)
